Laboratory results: PubChem BioAssay AID248 (DTP/NCI, 2004)
Toxic doses and inconclusive results are not listed. Rule as the data show it: active = T/C of 150% or more; inactive = T/C below 125%.

Test system: L1210 leukemia ip in BDF1 mice, survival T/C
Assay: NCI In Vivo Anticancer Drug Screen. Data for tumor model L1210 Leukemia (intraperitoneal) in B6D2F1 (BDF1) mice
Details: endpoint: mean survival time, higher = longer survival
How it was run: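 Antitumor effect is assessed in tumor-bearing animals. Survival in the compound arm is compared with a vehicle-dosed control arm and expressed as their quotient.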

[1] = dose: 100.0 mg/kg/injection, schedule: Q01DX009 (ip), vehicle: saline with Tween-80
[2] = dose: 100.0 mg/kg/injection, schedule: Q04DX003 (ip), vehicle: saline with Tween-80
[3] = dose: 200.0 mg/kg/injection, schedule: Q01DX009 (ip), vehicle: saline with Tween-80
[4] = dose: 200.0 mg/kg/injection, schedule: Q04DX003 (ip), vehicle: saline with Tween-80
[5] = dose: 400.0 mg/kg/injection, schedule: Q01DX009 (ip), vehicle: saline with Tween-80
[6] = dose: 400.0 mg/kg/injection, schedule: Q04DX003 (ip), vehicle: saline with Tween-80
[7] = dose: 100.0 mg/kg/injection, schedule: Q01DX001 (ip), vehicle: saline
[8] = dose: 200.0 mg/kg/injection, schedule: Q01DX001 (ip), vehicle: saline
[9] = dose: 400.0 mg/kg/injection, schedule: Q01DX001 (ip), vehicle: saline
[10] = dose: 100.0 mg/kg/injection, schedule: Q04DX003 (ip), vehicle: Klucel (hydroxypropylcellulose) (HPC)
[11] = dose: 200.0 mg/kg/injection, schedule: Q04DX003 (ip), vehicle: Klucel (hydroxypropylcellulose) (HPC)
[12] = dose: 100.0 mg/kg/injection, schedule: Q04DX002 (ip), vehicle: saline
[13] = dose: 200.0 mg/kg/injection, schedule: Q04DX002 (ip), vehicle: saline
[14] = dose: 50.0 mg/kg/injection, schedule: Q01DX009 (ip), vehicle: Klucel (hydroxypropylcellulose) (HPC)
[15] = dose: 50.0 mg/kg/injection, schedule: Q01DX001 (ip), vehicle: saline

Measured: T/C

O=C(CSc1cc(-c2ccc(Cl)cc2)s[s+]1)c1ccccc1
inactive: [1] 100 % of control | [2] 93 % of control | [3] 97 % of control | [4] 96 % of control | [5] 103 % of control | [6] 100 % of control

OC(COc1ccccc1)CN1CCN(c2cccc(Cl)c2)CC1 (stereo not drawn)
inactive: [7] 97 % of control | [8] 95 % of control | [9] 92 % of control

C=CS(=O)(=O)CCCCCCCCCCCCCCCCCC
inactive: [10] 91 % of control | [11] 91 % of control | dose: 400.0 mg/kg/injection, schedule: Q04DX003 (ip), vehicle: Klucel (hydroxypropylcellulose) (HPC) 98 % of control

CC1=NN=S(CC2=C(C(=O)O)N3C(=O)C(NC(=O)C[n+]4cc(=O)o[nH]4)C3SC2)S1 (stereo not drawn)
inactive: dose: 50.0 mg/kg/injection, schedule: Q04DX002 (ip), vehicle: saline 118 % of control | [12] 103 % of control | [13] 114 % of control

N#CCCN(C(=O)Nc1cc(C(F)(F)F)ccc1Cl)C1CCCCC1
inactive: dose: 100.0 mg/kg/injection, schedule: Q04DX002 (ip), vehicle: Klucel (hydroxypropylcellulose) (HPC) 96 % of control | dose: 200.0 mg/kg/injection, schedule: Q04DX002 (ip), vehicle: Klucel (hydroxypropylcellulose) (HPC) 96 % of control | dose: 400.0 mg/kg/injection, schedule: Q04DX002 (ip), vehicle: Klucel (hydroxypropylcellulose) (HPC) 105 % of control

COc1ccc(NC(=O)Nc2ccc(C)cc2C)cc1
inactive: [2] 93 % of control | [4] 90 % of control | [6] 95 % of control

c1ccc(NC(c2ccccc2)C(Nc2ccccc2)(c2ccccc2)c2ccccc2)cc1 (stereo not drawn)
inactive: dose: 100.0 mg/kg/injection, schedule: Q04DX003 (ip), vehicle: other 89 % of control | dose: 200.0 mg/kg/injection, schedule: Q04DX003 (ip), vehicle: other 94 % of control | dose: 400.0 mg/kg/injection, schedule: Q04DX003 (ip), vehicle: other 87 % of control

CCC(C(=O)NC(=O)NO)c1ccccc1 (stereo not drawn)
inactive: dose: 100.0 mg/kg/injection, schedule: Q01DX Z (ip), vehicle: carboxymethylcellulose (CMC) 94 % of control | dose: 300.0 mg/kg/injection, schedule: Q01DX Z (ip), vehicle: carboxymethylcellulose (CMC) 105 % of control | dose: 400.0 mg/kg/injection, schedule: Q01DX Z (ip), vehicle: carboxymethylcellulose (CMC) 90 % of control

O=C1/C(=C\c2ccccc2)C2CCC(C2)/C1=C\c1ccccc1
inactive: [14] 99 % of control | dose: 100.0 mg/kg/injection, schedule: Q01DX009 (ip), vehicle: Klucel (hydroxypropylcellulose) (HPC) 102 % of control | dose: 200.0 mg/kg/injection, schedule: Q01DX009 (ip), vehicle: Klucel (hydroxypropylcellulose) (HPC) 99 % of control

NC(=S)N/N=C1\C=CCCC1
inactive: dose: 50.0 mg/kg/injection, schedule: Q01DX001 (ip), vehicle: carboxymethylcellulose (CMC) 111 % of control

C[n+]1c2cc(N)ccc2cc2ccc(N)cc21
inactive: dose: 3.0 mg/kg/injection, schedule: Q04DX003 (ip), vehicle: saline 108 % of control | dose: 3.5 mg/kg/injection, schedule: Q01DX009 (ip), vehicle: saline 111 % of control | dose: 5.3 mg/kg/injection, schedule: Q01DX009 (ip), vehicle: saline 118 % of control | dose: 6.0 mg/kg/injection, schedule: Q04DX003 (ip), vehicle: saline 105 % of control | dose: 6.25 mg/kg/injection, schedule: Q01DX009 (ip), vehicle: saline 122 % of control | dose: 12.0 mg/kg/injection, schedule: Q04DX003 (ip), vehicle: saline 113 % of control | dose: 12.5 mg/kg/injection, schedule: Q04DX003 (ip), vehicle: saline 98 % of control

Cc1c(Cl)nc(Cl)nc1Cl
inactive: dose: 8.0 mg/kg/injection, schedule: Q01DX015 (ip), vehicle: carboxymethylcellulose (CMC) 104 % of control | dose: 16.0 mg/kg/injection, schedule: Q01DX015 (ip), vehicle: carboxymethylcellulose (CMC) 98 % of control | dose: 32.0 mg/kg/injection, schedule: Q01DX015 (ip), vehicle: carboxymethylcellulose (CMC) 96 % of control | [15] 101 % of control | dose: 64.0 mg/kg/injection, schedule: Q01DX015 (ip), vehicle: carboxymethylcellulose (CMC) 106 % of control | dose: 75.0 mg/kg/injection, schedule: Q01DX015 (ip), vehicle: carboxymethylcellulose (CMC) 98 % of control | [7] 101 % of control | dose: 150.0 mg/kg/injection, schedule: Q01DX015 (ip), vehicle: carboxymethylcellulose (CMC) 91 % of control | [8] 104 % of control | [9] 104 % of control

CCOC(=O)CCC(NC(=O)CCCCSc1ncnc2nc[nH]c12)C(=O)OCC (stereo not drawn)
inactive: dose: 25.0 mg/kg/injection, schedule: Q01DX009 (ip), vehicle: saline with Tween-80 97 % of control | dose: 25.0 mg/kg/injection, schedule: Q01DX009 (oral), vehicle: saline with Tween-80 90 % of control | dose: 50.0 mg/kg/injection, schedule: Q01DX009 (ip), vehicle: saline with Tween-80 101 % of control | dose: 50.0 mg/kg/injection, schedule: Q01DX009 (oral), vehicle: saline with Tween-80 86 % of control | [1] 106 % of control | dose: 100.0 mg/kg/injection, schedule: Q01DX009 (oral), vehicle: saline with Tween-80 100 % of control | [3] 111 % of control | dose: 200.0 mg/kg/injection, schedule: Q01DX009 (oral), vehicle: saline with Tween-80 88 % of control | [5] 107 % of control | dose: 400.0 mg/kg/injection, schedule: Q01DX009 (oral), vehicle: saline with Tween-80 95 % of control

ClC1CCCCCCCCC1
inactive: [15] 122 % of control | [7] 95 % of control | [9] 92 % of control

O=C(Nc1ccccc1)c1ccccc1C(O)(c1ccccc1)c1ccccn1 (stereo not drawn)
inactive: [1] 95 % of control | [3] 97 % of control | [5] 92 % of control

O=C(CCN1CC1)Nc1ccc(Cl)c(Cl)c1
inactive: dose: 20.0 mg/kg/injection, schedule: Q04DX003 (ip), vehicle: Klucel (hydroxypropylcellulose) (HPC) 88 % of control | dose: 25.0 mg/kg/injection, schedule: Q01DX009 (ip), vehicle: Klucel (hydroxypropylcellulose) (HPC) 98 % of control | dose: 40.0 mg/kg/injection, schedule: Q04DX003 (ip), vehicle: Klucel (hydroxypropylcellulose) (HPC) 98 % of control | [14] 101 % of control | dose: 80.0 mg/kg/injection, schedule: Q04DX003 (ip), vehicle: Klucel (hydroxypropylcellulose) (HPC) 92 % of control | [10] 86 % of control

Cc1ccc2c3c1C(O)C(C(N)=O)C3CCS2 (stereo not drawn)
inactive: [8] 89 % of control | [9] 106 % of control

O=C(O)CCCOc1ccc(Cl)cc1Cl
inactive: [1] 103 % of control | [3] 98 % of control | [5] 103 % of control

CC(=O)c1ccc(C#N)cc1.[Co+3].[NH2-].[NH2-].[NH2-].[NH2-].[NH2-].[O-][Cl+3]([O-])([O-])O
inactive: [12] 104 % of control | [13] 111 % of control | dose: 400.0 mg/kg/injection, schedule: Q04DX002 (ip), vehicle: saline 108 % of control

c1ccc(C(N2CCCCC2)N2CCCCC2)cc1
inactive: [10] 106 % of control | [11] 103 % of control

O=C(O)C1CCC[N-]C1.O=C(O)C1CCC[N-]C1.[Cl][Pt+2][Cl] (stereo not drawn)
inactive: dose: 5.0 mg/kg/injection, schedule: Q01DX009 (ip), vehicle: saline with Tween-80 95 % of control | dose: 10.0 mg/kg/injection, schedule: Q01DX009 (ip), vehicle: saline with Tween-80 103 % of control | dose: 20.0 mg/kg/injection, schedule: Q01DX009 (ip), vehicle: saline with Tween-80 106 % of control
